“And” between values parts separate entries of the source, which are not always exact repeats. Equal values may be shown once.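 Cells were grown in 96-well plates and exposed to each compound for 48 hours at five concentrations; endpoints were interpolated linearly between bracketing concentrations, or set to the highest concentration if not reached. GI50 = concentration required for 50% inhibition of growth. TGI: concentration producing complete growth inhibition.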
What follows are molecules tested on SN12C renal (assay: DTP human tumour cell line panel, 48 h).
Work on `C=C1C(=O)OC2CCN3CC=C(COC(=O)C(C)(O)C4(CO4)C1C)C23` (configuration not stated) yielded a TGI of over 100 µM. Work on `CS(=O)(=O)Nc1ccc2c(c1)oc(=O)c1ccccc12` yielded a TGI of over 100 µM.

The molecules below were run on CCRF-CEM leukemia (assay: DTP human tumour cell line panel, 48 h).
Work on `C=COCCCOc1ccccc1` yielded a TGI of over 100 µM. `COc1cc2nc(-c3ccc(Cl)cc3)cc(OCCCN3CCCCC3)c2cc1OC` was tested, and the GI50 was 2.79 µM and the TGI was over 100 µM. `C=C(c1nc2ccc(Cl)cc2[nH]c1=O)C(O)c1ccc(C(O)C(=O)c2nc3ccc(Cl)cc3[nH]c2=O)cc1` (configuration not stated) gave a TGI of over 100 µM. Molecule `O=c1c2sc(=S)n(-c3ccc(F)cc3)c2ncn1Cc1ccc(F)cc1F` has a GI50 of over 100 µM and a TGI of over 100 µM. In the case of `COc1cc(C#CC(=O)OC/C=C/c2ccc3c(c2)OCO3)cc(OC)c1OC`, the TGI was 49.3 µM. In the case of `O=C1NC(=O)C(c2cnc3ccccn23)=C1c1cn2c3c(cc(F)cc13)CN(C(=O)N1CCCCC1)CC2`, the GI50 was 2.69 µM and the TGI was 49.3 µM. With `Clc1nc2ccccc2nc1CI` the GI50 was 0.93 µM and the TGI was 4.99 µM. Molecule `Cn1nc(N)c2cc([C@@H]3Nc4ccc5[nH]ncc5c4[C@H]4C5CCC(C5)[C@@H]34)ccc21` (some centres not stated) has a GI50 of 0.377 µM and a TGI of over 43.4 µM. `O=C(O)C1C2C=CC(O2)C1C(=O)NCc1ccccn1` (configuration not stated) gave a TGI of over 100 µM. With `O=C(OC(CNc1cc(=O)n(Cc2ccccc2)c(=O)n1Cc1ccccc1)CN1CCCC1)c1ccccc1` (configuration not stated) the GI50 was 23.7 µM and the TGI was over 100 µM. In the case of `CCN(CC)CCCC(CNc1ccnc2cc(Cl)ccc12)c1ccc(Cl)cc1` (configuration not stated), the GI50 was 1.71 µM and 1.2 µM and the TGI was 5.17 µM and 4.6 µM. With `CCOC(=O)CCCn1c(SC)nc2[nH]cc(-c3ccccc3)c2c1=O` the GI50 was 3.01 µM and the TGI was 54.5 µM. In the case of `CCN(CC)CCOc1ccc(-c2nc3cc(Cl)ccc3s2)cc1`, the GI50 was 0.565 µM and the TGI was 3.14 µM. Work on `CNC(=O)N(C)N=NCCCl` yielded a TGI of over 100 µM. `CCN1CCN(C(c2ccc(C(F)(F)F)cc2)c2ccc3cccnc3c2O)CC1` (configuration not stated) showed a GI50 of 1.45 µM and a TGI of 7.85 µM. For `CC(C)=CC/C=C(/C)[C@H]1CC[C@]2(C)[C@@H]1CC[C@@H]1[C@@]3(C)CCCNC(C)(C)[C@@H]3CC[C@]12C`, the GI50 was 2.84 µM and the TGI was 11.3 µM. `O=C1c2cccc(NCCCNCCO)c2C(=O)c2cccc(NCCCNCCO)c21` was tested, and the TGI was 7.09 µM and 6.97 µM. Molecule `N#CC(=C1C=CC(=NO)C=C1)c1ccccc1` has a GI50 of 0.476 µM and a TGI of 2.36 µM. Work on `CCCCCCCCCCCCCC1=NC(C)(C)CN1C(C)C` yielded a GI50 of 1.54 µM and a TGI of 3.43 µM. `CC(C)=CCNc1ncnc2c1ncn2C1OC(CO)C(O)C1O` (configuration not stated) gave a GI50 of 0.456 µM and a TGI of 3.17 µM. Work on `COc1ccc(CN2C(=O)/C(=C\C(=O)c3ccc(OCCN4CCCCC4)cc3)c3ccccc32)cc1` yielded a GI50 of 3.01 µM and a TGI of 14 µM. `CCC(C)n1ncn(-c2ccc(N3CCN(c4ccc(OCC5COC(Cn6cncn6)(c6ccc(Cl)cc6Cl)O5)cc4)CC3)cc2)c1=O` (configuration not stated) was tested, and the GI50 was over 100 µM and the TGI was over 100 µM. Molecule `NC(=O)NC1C(c2ccccc2)=C1c1ccccc1` has a TGI of over 100 µM. With `O=C(CNc1ccc(Cl)cc1)Nc1ccc(-c2nc3ccccc3s2)cc1` the GI50 was 0.859 µM and the TGI was over 100 µM. Molecule `CCCCCCCCCCCCOC1C(C(COC2OC(C3COC(C)(C)O3)C3OC(C)(C)OC23)NC(=O)Nc2ccc(C(=O)O)cc2)OC2OC(C)(C)OC21` (configuration not stated) has a GI50 of 0.306 µM and a TGI of 0.577 µM. `CCN(CC)CCC(CNc1ccnc2cc(Cl)ccc12)c1ccc(OC)cc1` (configuration not stated) was tested, and the GI50 was 13.1 µM and 2.77 µM and the TGI was 55.9 µM and 28.7 µM. In the case of `C=C1C(=O)OC2CCN3CC=C(COC(=O)C(C)(O)C4(CO4)C1C)C23` (configuration not stated), the TGI was over 100 µM. Molecule `CS(=O)(=O)Nc1ccc2c(c1)oc(=O)c1ccccc12` has a TGI of over 100 µM.

Each molecule was assayed on SK-OV-3 ovarian (assay: DTP human tumour cell line panel, 48 h).
In the case of `C=COCCCOc1ccccc1`, the GI50 was over 100 µM and the TGI was over 100 µM. Molecule `C=C(c1nc2ccc(Cl)cc2[nH]c1=O)C(O)c1ccc(C(O)C(=O)c2nc3ccc(Cl)cc3[nH]c2=O)cc1` (configuration not stated) has a TGI of over 100 µM. Molecule `O=c1c2sc(=S)n(-c3ccc(F)cc3)c2ncn1Cc1ccc(F)cc1F` has a GI50 of over 100 µM and a TGI of over 100 µM. `COc1cc(C#CC(=O)OC/C=C/c2ccc3c(c2)OCO3)cc(OC)c1OC` gave a TGI of 68.6 µM. With `O=C1NC(=O)C(c2cnc3ccccn23)=C1c1cn2c3c(cc(F)cc13)CN(C(=O)N1CCCCC1)CC2` the GI50 was 15.5 µM and the TGI was 71.9 µM. Molecule `Clc1nc2ccccc2nc1CI` has a GI50 of 14.3 µM and a TGI of 30.4 µM. With `Cn1nc(N)c2cc([C@@H]3Nc4ccc5[nH]ncc5c4[C@H]4C5CCC(C5)[C@@H]34)ccc21` (some centres not stated) the GI50 was 1.16 µM and the TGI was 69.1 µM. `O=C(O)C1C2C=CC(O2)C1C(=O)NCc1ccccn1` (configuration not stated) was tested, and the TGI was over 100 µM. For `O=C(OC(CNc1cc(=O)n(Cc2ccccc2)c(=O)n1Cc1ccccc1)CN1CCCC1)c1ccccc1` (configuration not stated), the GI50 was over 100 µM and the TGI was over 100 µM. In the case of `CCN(CC)CCCC(CNc1ccnc2cc(Cl)ccc12)c1ccc(Cl)cc1` (configuration not stated), the GI50 was 2 µM and 1.82 µM and the TGI was 4.04 µM and 3.81 µM. `CCOC(=O)CCCn1c(SC)nc2[nH]cc(-c3ccccc3)c2c1=O` showed a GI50 of 25.6 µM and a TGI of 93.6 µM. Molecule `CCN(CC)CCOc1ccc(-c2nc3cc(Cl)ccc3s2)cc1` has a GI50 of 1.77 µM and a TGI of 3.84 µM. `CNC(=O)N(C)N=NCCCl` showed a TGI of over 100 µM. `CCN1CCN(C(c2ccc(C(F)(F)F)cc2)c2ccc3cccnc3c2O)CC1` (configuration not stated) showed a GI50 of 3.84 µM and a TGI of 16.8 µM. `CC(C)=CC/C=C(/C)[C@H]1CC[C@]2(C)[C@@H]1CC[C@@H]1[C@@]3(C)CCCNC(C)(C)[C@@H]3CC[C@]12C` was tested, and the GI50 was 10.6 µM and the TGI was 24.8 µM. For `O=C1c2cccc(NCCCNCCO)c2C(=O)c2cccc(NCCCNCCO)c21`, the TGI was 7.23 µM. `N#CC(=C1C=CC(=NO)C=C1)c1ccccc1` showed a GI50 of 5.75 µM and a TGI of over 65 µM. `CCCCCCCCCCCCCC1=NC(C)(C)CN1C(C)C` showed a GI50 of 1.79 µM and a TGI of 3.17 µM. `CC(C)=CCNc1ncnc2c1ncn2C1OC(CO)C(O)C1O` (configuration not stated) was tested, and the GI50 was 1.75 µM and the TGI was 33.5 µM. `COc1ccc(CN2C(=O)/C(=C\C(=O)c3ccc(OCCN4CCCCC4)cc3)c3ccccc32)cc1` gave a GI50 of 18.4 µM and a TGI of 34.3 µM. `CCC(C)n1ncn(-c2ccc(N3CCN(c4ccc(OCC5COC(Cn6cncn6)(c6ccc(Cl)cc6Cl)O5)cc4)CC3)cc2)c1=O` (configuration not stated) was tested, and the GI50 was 24.2 µM and the TGI was over 100 µM. For `NC(=O)NC1C(c2ccccc2)=C1c1ccccc1`, the TGI was 38.2 µM. In the case of `O=C(CNc1ccc(Cl)cc1)Nc1ccc(-c2nc3ccccc3s2)cc1`, the GI50 was 12 µM and the TGI was over 78.6 µM. With `CCCCCCCCCCCCOC1C(C(COC2OC(C3COC(C)(C)O3)C3OC(C)(C)OC23)NC(=O)Nc2ccc(C(=O)O)cc2)OC2OC(C)(C)OC21` (configuration not stated) the GI50 was 11.7 µM and the TGI was 24 µM. In the case of `CCN(CC)CCC(CNc1ccnc2cc(Cl)ccc12)c1ccc(OC)cc1` (configuration not stated), the GI50 was 13.1 µM and 14.1 µM and the TGI was 33.4 µM and 46 µM. In the case of `C=C1C(=O)OC2CCN3CC=C(COC(=O)C(C)(O)C4(CO4)C1C)C23` (configuration not stated), the TGI was over 100 µM.

What follows are molecules tested on M14 melanoma (assay: DTP human tumour cell line panel, 48 h).
Work on `C=COCCCOc1ccccc1` yielded a TGI of over 100 µM. For `COc1cc2nc(-c3ccc(Cl)cc3)cc(OCCCN3CCCCC3)c2cc1OC`, the GI50 was 0.412 µM and the TGI was 1.67 µM. Work on `C=C(c1nc2ccc(Cl)cc2[nH]c1=O)C(O)c1ccc(C(O)C(=O)c2nc3ccc(Cl)cc3[nH]c2=O)cc1` (configuration not stated) yielded a TGI of over 100 µM. `O=c1c2sc(=S)n(-c3ccc(F)cc3)c2ncn1Cc1ccc(F)cc1F` was tested, and the GI50 was over 100 µM and the TGI was over 100 µM. `COc1cc(C#CC(=O)OC/C=C/c2ccc3c(c2)OCO3)cc(OC)c1OC` was tested, and the TGI was 79.8 µM. `O=C1NC(=O)C(c2cnc3ccccn23)=C1c1cn2c3c(cc(F)cc13)CN(C(=O)N1CCCCC1)CC2` showed a GI50 of 13.7 µM and a TGI of 36.6 µM. With `Clc1nc2ccccc2nc1CI` the GI50 was 3.32 µM and the TGI was 12.6 µM. In the case of `Cn1nc(N)c2cc([C@@H]3Nc4ccc5[nH]ncc5c4[C@H]4C5CCC(C5)[C@@H]34)ccc21` (some centres not stated), the GI50 was 0.372 µM and the TGI was 9.98 µM. In the case of `O=C(O)C1C2C=CC(O2)C1C(=O)NCc1ccccn1` (configuration not stated), the TGI was over 100 µM. In the case of `O=C(OC(CNc1cc(=O)n(Cc2ccccc2)c(=O)n1Cc1ccccc1)CN1CCCC1)c1ccccc1` (configuration not stated), the GI50 was over 100 µM and the TGI was over 100 µM. In the case of `CCN(CC)CCCC(CNc1ccnc2cc(Cl)ccc12)c1ccc(Cl)cc1` (configuration not stated), the GI50 was 0.227 µM and 0.203 µM and the TGI was 0.612 µM and 0.405 µM. In the case of `CCOC(=O)CCCn1c(SC)nc2[nH]cc(-c3ccccc3)c2c1=O`, the GI50 was 15.4 µM and the TGI was 31.6 µM. With `CCN(CC)CCOc1ccc(-c2nc3cc(Cl)ccc3s2)cc1` the GI50 was 1.73 µM and the TGI was 3.21 µM. Molecule `CNC(=O)N(C)N=NCCCl` has a TGI of over 100 µM.

Reference: PubChem BioAssay (NCI)
